Assay results published in article PMC6042199, “Inhibitory effects against α-glucosidase and α-amylase of the flavonoids-rich extract from Scutellaria baicalensis shoots and interpretation of structure–activity relationship of its eight flavonoids by a refined assign-score method” (Chemistry Central Journal, 2018).
In brackets after ≈: the same amount, converted by molar mass.

Key:
[1] = tested on: yeast α-glucosidase from Saccharomyces cerevisiae; experiment: α-glucosidase inhibitory effect (pNPG, AUC of absorbance at 405 nm); assay type: biochemical; settings: for IC50 α-Glucosidase: mean ± SD of three repeated tests, logarithmic regression; for Inhibitory effects α-glucosidase (acarbose equivalents): converted into acarbose equivalents
Procedure: (§1) All solvents (analytical grade) were bought from Beijing Chemical Factory, and purified water was from a mili-Q system (Millipore, Billerica, MA).
α-Glucosidase inhibitory effect was assayed as reported by Zhang et al.. […] Then, 30 μL pNPG solution (2 mM pNPG in 0.1 mM phosphate buffer) was added quickly to initiate the enzyme reaction. Absorbance was monitored at 405 nm every 15 min for 2 h using a microplate reader (Tecan infinite 200, Swiss).

[2] = target: T1, porcine pancreatic α-amylase (Sus scrofa, UniProt P00690); experiment: α-amylase inhibitory effect (starch, dinitrosalicylic acid, 540 nm); assay type: biochemical; settings: for Contribution to the overall enzyme inhibitory effect of the extract, α-amylase: Contribution = [Ei/E0] × C × 100; for Inhibitory effects α-amylase (acarbose equivalents): converted into acarbose equivalents; for IC50: mean ± SD of three repeated tests, logarithmic regression
T1 construct: purchased Sigma-Aldrich Co. (St. Louis, MO, USA)
T1 sequence (P00690 16-511): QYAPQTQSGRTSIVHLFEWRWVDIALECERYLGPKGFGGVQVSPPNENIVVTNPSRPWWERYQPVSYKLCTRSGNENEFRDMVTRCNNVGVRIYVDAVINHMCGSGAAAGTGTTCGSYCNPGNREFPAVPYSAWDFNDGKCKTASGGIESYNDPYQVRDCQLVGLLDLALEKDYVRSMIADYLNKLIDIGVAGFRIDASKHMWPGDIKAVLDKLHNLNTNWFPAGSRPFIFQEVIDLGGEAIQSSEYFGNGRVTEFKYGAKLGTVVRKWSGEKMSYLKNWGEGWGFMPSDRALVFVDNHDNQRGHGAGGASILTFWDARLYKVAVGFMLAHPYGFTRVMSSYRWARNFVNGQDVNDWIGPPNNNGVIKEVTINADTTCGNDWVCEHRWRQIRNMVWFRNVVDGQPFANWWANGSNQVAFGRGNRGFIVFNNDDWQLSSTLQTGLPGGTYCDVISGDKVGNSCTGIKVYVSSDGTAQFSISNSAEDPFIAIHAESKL
Procedure: as §1
After incubation for 20 min at 37 °C, 300 μL starch solution (1%) in sodium phosphate buffer (0.02 M, pH 6.9 with 6 mM NaCl) was added, and the mixture was re-incubated for 20 min, followed by addition of 0.2 mL dinitrosalicylic acid. The new mixture was then boiled for 5 min and cooled to room temperature. Cooled mixture was diluted by adding 10 mL distilled water, and absorbance was measured at 540 nm using a UV–visible spectrophotometer (Shimadzu UV-1700, Japan). […] IC50 values were calculated by the logarithmic regression analysis.

α-glucosidase enzyme = tested on: α-glucosidase enzyme; design: method as in doi:10.1007/978-3-642-73461-8_2; settings: cited from earlier work

Inhibitory effects α-glucosidase (acarbose equivalents) [1]	Compound	final inhibitory effect against α-glucosidase ([1]; at 2 mg/mL)	IC50 α-Glucosidase [1]	inhibition at 2000 µg/mL ([2]; read-out: inhibition of α-amylase)	affinity exceeding that of the normal substrate, factor (α-glucosidase enzyme)	Contribution to the overall enzyme inhibitory effect of the extract, α-amylase [2]	Inhibitory effects α-amylase (acarbose equivalents) [2]	IC50 [2]
–	C[C@H]1O[C@H](O[C@H]2[C@H](O)[C@@H](O)[C@@H](O[C@H]3[C@H](O)[C@@H](O)C(O)O[C@@H]3CO)O[C@@H]2CO)[C@H](O)[C@@H](O)[C@@H]1N[C@H]1C=C(CO)[C@@H](O)[C@H](O)[C@H]1O (stereo partly drawn) [Acarbose, acarbose, reference compound]	68.66%	996.02 ± 21.34 µg/mL (≈ 1540 µM)	69.9%	10^4–10^5	–	–	–
1.83 ± 0.02 μg acarbose/μg	O=C(O)[C@H]1O[C@@H](Oc2cc(O)c3c(=O)cc(-c4ccc(O)cc4)oc3c2)[C@H](O)[C@@H](O)[C@@H]1O [Apigenin-7-O-G, apigenin-7-O-glucuronide]	–	543.28 ± 11.41 µg/mL (≈ 1220 µM)	–	–	2.74 ± 0.09%	1.04 ± 0.01 μg acarbose/μg	1470 µM
4.31 ± 0.08 μg acarbose/μg	O=c1cc(-c2ccc(O)cc2)oc2cc(O)cc(O)c12 [Apigenin]	–	231.13 ± 5.35 µg/mL (≈ 855 µM)	–	–	–	–	–
2.36 ± 0.03 μg acarbose/μg	O=c1cc(-c2ccccc2)oc2cc(O)cc(O)c12 [Chrysin, chrysin]	–	422.67 ± 9.37 µg/mL (≈ 1660 µM)	–	–	6.91 ± 0.21%	1.51 ± 0.02 μg acarbose/μg	1770 µM
1.63 ± 0.01 μg acarbose/μg	O=C(O)[C@H]1O[C@@H](Oc2cc(O)c3c(=O)cc(-c4ccccc4)oc3c2)[C@H](O)[C@@H](O)[C@@H]1O [Chrysin-7-O-G, chrysin-7-O-glucuronide]	–	612.13 ± 15.34 µg/mL (≈ 1420 µM)	–	–	2.63 ± 0.07%	0.69 ± 0.01 μg acarbose/μg	2280 µM

Compound	Inhibitory effects α-glucosidase (acarbose equivalents) [1]	final inhibitory effect against α-glucosidase ([1]; at 2 mg/mL)	IC50 α-Glucosidase [1]	inhibition at 2000 µg/mL ([2]; read-out: inhibition of α-amylase)	affinity exceeding that of the normal substrate, factor (α-glucosidase enzyme)	Contribution to the overall enzyme inhibitory effect of the extract, α-amylase [2]	Inhibitory effects α-amylase (acarbose equivalents) [2]	IC50 [2]
O=c1cc(-c2ccccc2)oc2cc(O)c(O)c(O)c12 [Baicalein, baicalein]	3.58 ± 0.07 μg acarbose/μg	–	277.94 ± 6.21 µg/mL (≈ 1030 µM)	–	–	23.37 ± 0.98%	2.07 ± 0.02 μg acarbose/μg	1240 µM
O=C(O)[C@H]1O[C@@H](Oc2cc3oc(-c4ccccc4)cc(=O)c3c(O)c2O)[C@H](O)[C@@H](O)[C@@H]1O [Baicalin, baicalin]	1.68 ± 0.02 μg acarbose/μg	–	591.58 ± 12.21 µg/mL (≈ 1330 µM)	–	–	4.95 ± 0.13%	1.03 ± 0.01 μg acarbose/μg	1480 µM
O=C(O)[C@H]1O[C@@H](Oc2cc3oc(-c4ccc(O)cc4)cc(=O)c3c(O)c2O)[C@H](O)[C@@H](O)[C@@H]1O [Scutellarin, scutellarin]	3.18 ± 0.06 μg acarbose/μg	–	313.25 ± 7.28 µg/mL (≈ 677 µM)	–	–	14.80 ± 0.66%	1.84 ± 0.02 μg acarbose/μg	799 µM
